Our source for the EC50 values is patent publication US9765067B2, “Thiophen-2-yl-pyridin-2-yl-1H-pyrazole-4-carboxylic acid derivatives and the use thereof as soluble guanylate cyclase activators” (Novartis AG, priority 2014, dated 2017).

Structures are written as SMILES.

In the experiment the target is T1, soluble guanylate cyclase (human GUCYA3/GUCYB3) overexpressed in CHO cells (Homo sapiens, UniProt Q02108+Q02153).
T1 construct: expressed in transfected cells
T1 sequence (Q02108 1-690 partner): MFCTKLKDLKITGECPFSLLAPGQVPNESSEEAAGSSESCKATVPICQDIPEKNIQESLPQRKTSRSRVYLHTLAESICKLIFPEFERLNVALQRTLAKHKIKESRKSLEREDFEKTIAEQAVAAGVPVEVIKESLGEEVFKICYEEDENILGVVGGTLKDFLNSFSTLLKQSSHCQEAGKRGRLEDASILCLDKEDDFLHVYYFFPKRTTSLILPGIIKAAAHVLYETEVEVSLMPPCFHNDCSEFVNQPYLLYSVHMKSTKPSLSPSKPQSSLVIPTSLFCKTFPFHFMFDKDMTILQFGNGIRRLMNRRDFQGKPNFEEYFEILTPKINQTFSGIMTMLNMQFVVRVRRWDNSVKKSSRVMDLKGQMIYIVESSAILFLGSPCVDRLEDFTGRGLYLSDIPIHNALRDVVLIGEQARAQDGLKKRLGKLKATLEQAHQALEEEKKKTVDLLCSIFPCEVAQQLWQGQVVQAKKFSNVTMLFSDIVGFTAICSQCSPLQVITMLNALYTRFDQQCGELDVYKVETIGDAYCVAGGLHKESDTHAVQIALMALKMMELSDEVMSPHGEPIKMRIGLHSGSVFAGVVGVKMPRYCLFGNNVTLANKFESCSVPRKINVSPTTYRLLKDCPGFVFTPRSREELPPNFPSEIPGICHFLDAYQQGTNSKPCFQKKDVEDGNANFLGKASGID
T1 sequence (Q02153 1-619): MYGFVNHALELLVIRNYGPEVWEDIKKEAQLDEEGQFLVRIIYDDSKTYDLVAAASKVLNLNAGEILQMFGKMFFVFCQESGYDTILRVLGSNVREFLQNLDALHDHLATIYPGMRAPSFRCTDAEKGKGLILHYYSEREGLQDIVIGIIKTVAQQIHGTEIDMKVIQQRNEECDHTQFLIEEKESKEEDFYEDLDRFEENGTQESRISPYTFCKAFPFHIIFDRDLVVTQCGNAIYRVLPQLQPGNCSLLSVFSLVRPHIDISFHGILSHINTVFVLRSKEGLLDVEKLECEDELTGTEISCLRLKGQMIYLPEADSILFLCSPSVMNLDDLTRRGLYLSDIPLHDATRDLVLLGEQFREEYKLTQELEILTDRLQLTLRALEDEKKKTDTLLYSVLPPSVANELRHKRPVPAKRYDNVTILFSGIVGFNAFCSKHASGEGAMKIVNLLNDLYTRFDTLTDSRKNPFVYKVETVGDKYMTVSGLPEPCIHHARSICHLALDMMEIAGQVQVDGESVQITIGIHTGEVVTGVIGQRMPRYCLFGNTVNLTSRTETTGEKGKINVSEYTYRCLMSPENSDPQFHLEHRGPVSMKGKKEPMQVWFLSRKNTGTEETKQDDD
Description: CHO cellular assay (cGMP production, HTRF). The note with it: CHO K1 clone 8E10 overexpressing human sGC, Cisbio HTRF, 1 h room temperature, 1 mM IBMX, 20 uM ODQ, minimum quantification limit 0.5 nM. The format is cell-based. The text has this:
Chinese hamster ovary (CHO) cells overexpressing soluble guanylate cyclase were generated to test the effect of sGC activators in a cellular context. Human cDNAs for GUCYA3 (RefSeq: NM_000856.3) and GUCYB3 (RefSeq: NM_000857.1) were amplified by PCR from a HUVEC (Human Umbilical Vein Endothelial Cells) cDNA library and cloned into mammalian expression vectors. CHO K1 cells (ATCC CCL-61) were transfected using Lipofectamine 2000 following manufacturer's instructions and stably expressing clones were identified by antibiotic selection. CHO GUCY clone 8E10 was used for subsequent experiments.
Cells were seeded at a density of 3000 cells/well in white 384-well proxyplates (Perkin Elmer) and incubated overnight, then the medium was removed and cells were washed with assay buffer (HBSS, 0.1% BSA, 1 mM IBMX, 20 uM ODQ). sGC activators were serially diluted in DMSO, then diluted in assay buffer prior to adding to cells (10 ul/well, final DMSO concentration 0.5%). Cells were incubated with compounds for 1 h room temperature, then assayed for cGMP production using Cisbio cGMP HTRF kit (62GM2PEC) according to manufacturer's instructions.
The EC50s are calculated based on the amount of cGMP interpolated from the standard curve, using a 4-parameter sigmoidal dose-response.
(In general: TR-FRET usually uses a lanthanide donor and a delayed reading to cut background.)

By EC50 is commonly meant the midpoint of the concentration-response curve. A higher EC50 goes with a less potent agent. Regarding `Cc1cc(C2CCN(C(=O)C3CCOC3)CC2)ccc1OCc1ccsc1-c1cccc(-n2ncc(C(=O)O)c2C(F)(F)F)n1` (racemic) [Example 12-3, (±)-1-(6-(3-((2-Methyl-4-(1-(tetrahydrofuran-3-carbonyl)piperidin-4-yl)phenoxy)methyl)thiophen-2-yl)pyridin-2-yl)-5-(trifluoromethyl)-1H-pyrazole-4-carboxylic acid], it took 6.9 nM to reach a half-maximal effect (EC50).

The compound `Cc1cc(C2CCN(C(=O)C3COC(C)(C)O3)CC2)ccc1OCc1ccsc1-c1cccc(-n2ncc(C(=O)O)c2C(F)(F)F)n1` (racemic) [Example 12-6, (±)-1-(6-(3-((4-(1-(2,2-Dimethyl-1,3-dioxolane-4-carbonyl)piperidin-4-yl)-2-methylphenoxy)methyl)thiophen-2-yl)pyridin-2-yl)-5-(trifluoromethyl)-1H-pyrazole-4-carboxylic acid] had an EC50 of 48 nM.

On to `Cc1cc(COc2ccc(C3CCN(C(=O)C4CC4)CC3O)cc2)c(-c2cccc(-n3ncc(C(=O)O)c3C(F)(F)F)n2)s1` (racemic) [Example 35-11, (±)-trans-1-(6-(3-((4-(1-(Cyclopropanecarbonyl)-3-hydroxypiperidin-4-yl)phenoxy)methyl)-5-methylthiophen-2-yl)pyridin-2-yl)-5-(trifluoromethyl)-1H-pyrazole-4-carboxylic acid], for which the response was half-maximal at 160 nM (EC50).

`Cc1cc(C2CCN(C(=O)C3CCNC3)CC2)ccc1OCc1ccsc1-c1cccc(-n2ncc(C(=O)O)c2C(F)(F)F)n1` (racemic) [Example 42, (±)-1-(6-(3-((2-Methyl-4-(1-(pyrrolidine-3-carbonyl)piperidin-4-yl)phenoxy)methyl)thiophen-2-yl)pyridin-2-yl)-5-(trifluoromethyl)-1H-pyrazole-4-carboxylic acid] came in with an EC50 of 620 nM. Compared with the last compound, the EC50 is about 3.9-fold higher.

In turn, `CCc1cc(OCc2cc(C)sc2-c2cccc(-n3ncc(C(=O)O)c3C(F)(F)F)n2)ccc1C1CCN(C(=O)C(O)CO)CC1` (racemic) [Example 44, (±)-1-(6-(3-((4-(1-(2,3-Ddihydroxypropanoyl)piperidin-4-yl)-3-ethylphenoxy)methyl)-5-methylthiophen-2-yl)pyridin-2-yl)-5-(trifluoromethyl)-1H-pyrazole-4-carboxylic acid] gave an EC50 of 130 nM.

`Cc1cc(COc2ccc([C@@H]3CCN(C(=O)C4CC4)C[C@H]3O)cc2)c(-c2cccc(-n3ncc(C(=O)O)c3C(F)(F)F)n2)s1` (single isomer, unassigned) [Example 35-6, (+)-trans-1-(6-(3-((4-((3,4)-1-(cyclopropanecarbonyl)-3-hydroxypiperidin-4-yl)phenoxy)methyl)-5-methylthiophen-2-yl)pyridin-2-yl)-5-(trifluoromethyl)-1H-pyrazole-4-carboxylic acid] gave an EC50 of 91 nM.

With `CCC(=O)N1CCC(c2ccc(OCc3ccsc3-c3cccc(-n4ncc(C(=O)O)c4C(F)(F)F)n3)cc2)CC1` [Example 1, 1-(6-(3-((4-(1-Propionylpiperidin-4-yl)phenoxy)methyl)thiophen-2-yl)pyridin-2-yl)-5-(trifluoromethyl)-1H-pyrazole-4-carboxylic acid], the EC50 came to 24 nM.

`CCC(=O)N1CCC(c2ccc(OCc3c(C(F)(F)F)csc3-c3cccc(-n4ncc(C(=O)O)c4C(F)(F)F)n3)cc2)CC1` [Example 2-1, 1-(6-(3-((4-(1-Propionylpiperidin-4-yl)phenoxy)methyl)-4-(trifluoromethyl)thiophen-2-yl)pyridin-2-yl)-5-(trifluoromethyl)-1H-pyrazole-4-carboxylic acid] had an EC50 of 2.8 nM.

The compound `COC(=O)N1CCC(c2ccc(OCc3ccsc3-c3cccc(-n4ncc(C(=O)O)c4C(F)(F)F)n3)cc2)CC1` [Example 2-2, 1-(6-(3-((4-(1-(Methoxycarbonyl)piperidin-4-yl)phenoxy)methyl)thiophen-2-yl)pyridin-2-yl)-5-(trifluoromethyl)-1H-pyrazole-4-carboxylic acid] returned an EC50 of 32 nM. Against the preceding compound, the EC50 is about 11-fold higher.

For `O=C(O)c1cnn(-c2cccc(-c3sccc3COc3ccc(C4CCN(C(=O)C5CC5)CC4)cc3)n2)c1C(F)(F)F` [Example 2-3, 1-(6-(3-((4-(1-(Cyclopropanecarbonyl)piperidin-4-yl)phenoxy)methyl)thiophen-2-yl)pyridin-2-yl)-5-(trifluoromethyl)-1H-pyrazole-4-carboxylic acid], the response was half-maximal at 2.8 nM (EC50).

Turning to `CCC(=O)N1CCC(c2ccc(OCc3c(C(F)(F)F)csc3-c3cccc(-n4ncc(C(=O)O)c4C(F)(F)F)n3)c(C)c2)CC1` [Example 2-4, 1-(6-(3-((2-Methyl-4-(1-propionylpiperidin-4-yl)phenoxy)methyl)-4-(trifluoromethyl)thiophen-2-yl)pyridin-2-yl)-5-(trifluoromethyl)-1H-pyrazole-4-carboxylic acid], the EC50 was not above 0.5 nM.

With `CCC(=O)N1CCC(c2ccc(OCc3ccsc3-c3cccc(-n4ncc(C(=O)O)c4C(F)(F)F)n3)c(C)c2)CC1` [Example 2-5, 1-(6-(3-((2-Methyl-4-(1-propionylpiperidin-4-yl)phenoxy)methyl)thiophen-2-yl)pyridin-2-yl)-5-(trifluoromethyl)-1H-pyrazole-4-carboxylic acid], the EC50 stood at 5.5 nM.

`COC(=O)N1CCC(c2ccc(OCc3cc(C)sc3-c3cccc(-n4ncc(C(=O)O)c4C(F)(F)F)n3)c(C)c2)CC1` [Example 3, 1-(6-(3-((4-(1-(Methoxycarbonyl)piperidin-4-yl)-2-methylphenoxy)methyl)-5-methylthiophen-2-yl)pyridin-2-yl)-5-(trifluoromethyl)-1H-pyrazole-4-carboxylic acid] registered an EC50 of 1.4 nM.

`CCC(=O)N1CCC(c2cc(C)c(OCc3ccsc3-c3cccc(-n4ncc(C(=O)O)c4C(F)(F)F)n3)c(C)c2)CC1` [Example 4-1]: the midpoint of the response, the EC50, lay at 2 nM.

With `CCC(=O)N1CCC(c2ccc(OCc3cc(C)sc3-c3cccc(-n4ncc(C(=O)O)c4C(F)(F)F)n3)cc2)CC1` [Example 4-2, 1-(6-(5-Methyl-3-((4-(1-propionylpiperidin-4-yl)phenoxy)methyl)thiophen-2-yl)pyridin-2-yl)-5-(trifluoromethyl)-1H-pyrazole-4-carboxylic acid], a half-maximal effect (EC50) was put at 3 nM.

With `CCc1cc(COc2ccc(C3CCN(C(=O)OC)CC3)cc2C)c(-c2cccc(-n3ncc(C(=O)O)c3C(F)(F)F)n2)s1` [Example 4-3, 1-(6-(5-Ethyl-3-((4-(1-(methoxycarbonyl)piperidin-4-yl)-2-methylphenoxy)methyl)thiophen-2-yl)pyridin-2-yl)-5-(trifluoromethyl)-1H-pyrazole-4-carboxylic acid], a half-maximal response (EC50) required 5.5 nM.

Compound `Cc1cc(C2CCN(C(=O)C3CC3)CC2)ccc1OCc1c(C)csc1-c1cccc(-n2ncc(C(=O)O)c2C(F)(F)F)n1` [Example 4-4, 1-(6-(3-((4-(1-(Cyclopropanecarbonyl)piperidin-4-yl)-2-methylphenoxy)methyl)-4-methylthiophen-2-yl)pyridin-2-yl)-5-(trifluoromethyl)-1H-pyrazole-4-carboxylic acid] showed a concentration giving a half-maximal response (EC50) not above 0.5 nM.
